Reference: patent US20090048269A1 (AstraZeneca AB, priority 2007, published 2009)
Values joined by “and” are separate entries in the source; they are usually repeats but may differ in a detail not shown here. Equal entries are not always repeated.

Columns and labels:
human ALK5 [1] = target: T1, human ALK5 (Homo sapiens, UniProt P36897); assay: ALK5 Enzyme Assay 1; type: biochemical; design: 6His tagged ALK5 protein (amino acids 162-503) expressed in insect cells; 6His; made in house; host or cells: insect cells
T1 sequence (P36897 162-503): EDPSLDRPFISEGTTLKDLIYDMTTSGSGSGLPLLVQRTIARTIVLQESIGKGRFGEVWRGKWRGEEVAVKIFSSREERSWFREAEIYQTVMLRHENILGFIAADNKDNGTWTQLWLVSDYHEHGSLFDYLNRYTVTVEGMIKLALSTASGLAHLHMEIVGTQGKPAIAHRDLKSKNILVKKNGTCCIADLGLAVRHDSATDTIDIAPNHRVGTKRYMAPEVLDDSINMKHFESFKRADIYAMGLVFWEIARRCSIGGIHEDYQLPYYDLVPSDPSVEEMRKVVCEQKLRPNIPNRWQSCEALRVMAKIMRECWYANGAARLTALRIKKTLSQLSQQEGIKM
Protocol: This assay measures the ability of a compound to bind to and inhibit the activity of ALK5 protein in vitro. […] Assay measurements were performed in assay buffer comprising 60 mM HEPES pH 7.4, 3 mM MgCl2, 3 mM MnCl2, 3 μM Na orthovanadate, 1.2 mM DTT and 0.05% PEG2000. […] Reactions were performed in the presence of 200 μg/mL casein (Sigma-Aldrich C4765-10ML), 200 ng/mL ALK5, 0.5 μM ATP (Sigma-Aldrich A7699), 1 μCi/mL γ-33P ATP. Following addition of casein, ATP and compound, reactions were initiated by adding ALK5 enzyme and reactions run for 90 minutes. After incubation reactions were terminated by addition of 20 μL per well of 50% orthophosphoric acid. 20 minutes after addition of 70% v/v TCA, precipitated protein was transferred to GF/C 96 well plates using a Tomtec harvester with 1.5% orthophosphoric acid. […] All reactions were performed under linear kinetics.

human ALK5 [2] = target: T1, human ALK5; assay: ALK5 Enzyme Assay 2 (fluorescence polarisation probe displacement); type: binding; design: 6His tagged human ALK5 (residues162-503) was grown and purified from insect cells; 6His; made in house; host or cells: insect cells
How it was run: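 Recombinant ALK5 (3 μg/mL) incubated with test compound in 50 mM HEPES pH7.4, 10 mM MgCl2, 1 mM DTT, 0.01% CHAPS. Displacement of a fluorescent quinazoline-based ALK5 probe (50 nM final) in presence of 1 μM ATP read by fluorescence polarisation.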

[3] = read-out: EAA: activity (μM) using Enzyme Assay 1
[4] = read-out: EAA2: activity (μM) using Enzyme Assay 2

| SMILES | IC50 (human ALK5 [1]; [3]) | IC50 (human ALK5 [2]; [4]) | IC50 (human ALK5 [1]; EAA: activity (μM) using Enzyme Assay 1) | IC50 (human ALK5 [2]) |
| --- | --- | --- | --- | --- |
| COc1cc(Nc2cc(Oc3cccnc3-c3ccccc3C#N)ccn2)cc(OC)c1OC [Example 50, 2-(3-{2-[(3,4,5-Trimethoxyphenyl)amino]pyridin-4-yl}-oxypyridin-2-yl)benzonitrile] | 0.126 µM | 0.0308 µM | – | – |
| Cc1cc(Oc2ccnc(Nc3ccc(N4CCN(C)CC4)cc3)c2)c(-c2ccccn2)nc1C [Example 20, 4-(5,6-Dimethyl-2-pyridin-2-yl-pyridin-3-yl)oxy-N-[4-(4-methyl-piperazin-1-yl)phenyl]pyridin-2-amine] | 0.0104 µM | 0.0166 µM | – | – |
| Cc1cc(Oc2ccnc(Nc3ccc(S(N)(=O)=O)cc3)c2)c(-c2ccccn2)nc1C [Example 26, 4-{[4-(5,6-Dimethyl-2-pyridin-2-yl-pyridin-3-yl)oxypyridin-2-yl]-amino}benzenesulfonamide] | 0.0219 µM | 0.0124 µM | – | – |
| COc1cc(Nc2cc(Oc3ccc(C)nc3C)ccn2)cc(OC)c1OC [Example 7, 4-(2,6-Dimethylpyridin-3-yl)oxy-N-(3,4,5-trimethoxyphenyl)-pyridin-2-amine] | – | – | 0.0206 µM | 0.0349 µM |
| COc1ccc(S(C)(=O)=O)cc1Nc1cc(Oc2cc(C)c(C)nc2-c2ccccn2)ccn1 [Example 17, 4-(5,6-Dimethyl-2-pyridin-2-yl-pyridin-3-yl)oxy-N-(2-methoxy-5-methylsulfonyl-phenyl)pyridin-2-amine] | 0.0147 µM | 0.0514 µM | – | – |
| COc1cccc(-c2nc(C)ccc2Oc2ccnc(Nc3cc(OC)c(OC)c(OC)c3)c2)c1 [Example 58, 4-[2-(3-Methoxy-phenyl)-6-methyl-pyridin-3-yl]oxy-N-(3,4,5-trimethoxy-phenyl)pyridin-2-amine] | 0.0187 µM | 0.135 µM | – | – |
| COc1cc(Nc2cc(Oc3ccc(C)nc3-c3cnn(C)c3)ccn2)cc(OC)c1OC [Example 5, 4-[6-Methyl-2-(1-methylpyrazol-4-yl)pyridin-3-yl]oxy-N-(3,4,5-trimethoxy-phenyl)pyridin-2-amine] | 0.0153 µM | 0.0169 µM | – | – |
| Cc1cc(Oc2ccnc(Nc3ccn(C)n3)c2)c(-c2ccccn2)nc1C [Example 39, 4-(5,6-Dimethyl-2-pyridin-2-yl-pyridin-3-yl)oxy-N-(1-methylpyrazol-3-yl)-pyridin-2-amine] | 0.0935 µM | – | – | – |
| CCn1nccc1Nc1cc(Oc2cc(C)c(C)nc2-c2ccccn2)ccn1 [Example 32, 4-(5,6-Dimethyl-2-pyridin-2-yl-pyridin-3-yl)oxy-N-(2-ethylpyrazol-3-yl)-pyridin-2-amine] | 0.0425 µM | 0.0339 µM | – | – |
| Cc1cc(Oc2ccnc(Nc3cccc(Cl)c3)c2)c(-c2ccccn2)nc1C [Example 12, N-(3-Chlorophenyl)-4-(5,6-dimethyl-2-pyridin-2-yl-pyridin-3-yl)-oxy-pyridin-2-amine] | 0.0073 µM | 0.0418 µM | – | – |
| COc1cc(Nc2cc(Oc3ccc(C)nc3-c3ccccn3)ccn2)cc(OC)c1OC [Example 47, 4-(6-Methyl-2-pyridin-2-yl-pyridin-3-yl)oxy-N-(3,4,5-trimethoxy-phenyl)pyridin-2-amine] | 0.0248 µM | 0.0108 µM | – | – |
| Cc1cc(Oc2ccnc(Nc3ccccn3)c2)c(-c2ccccn2)nc1C [Example 14, 4-(5,6-Dimethyl-2-pyridin-2-yl-pyridin-3-yl)oxy-N-pyridin-2-yl-pyridin-2-amine] | 0.0255 µM and 0.00856 µM | – | – | – |
| COc1cc(Nc2cc(Oc3cccnc3)ccn2)cc(OC)c1OC [Example 6, 4-Pyridin-3-yloxy-N-(3,4,5-trimethoxyphenyl)pyridin-2-amine] | 5.5 µM | 1.97 µM | – | – |
| Cc1ccc(Oc2ccnc(Nc3ccc(S(N)(=O)=O)cc3)c2)c(-c2ccccn2)n1 [Example 43, 4-{[4-(6-Methyl-2-pyridin-2-yl-pyridin-3-yl)oxypyridin-2-yl]-amino}benzene-sulfonamide] | 0.0162 µM | 0.00728 µM | – | – |
| COc1cc(Nc2cc(Oc3cccnc3-c3cccc(C)n3)ccn2)cc(OC)c1OC [Example 1, 4-[2-(6-Methylpyridin-2-yl)pyridin-3-yl]oxy-N-(3,4,5-trimethoxy-phenyl)pyridin-2-amine] | 0.0783 µM | 0.089 µM | – | – |
| COc1cc(Nc2cc(Oc3cc(C)c(C)nc3-c3nc(C)c(C)s3)ccn2)cc(OC)c1OC [Example 4, {4-[2-(4,5-Dimethyl-thiazol-2-yl)-5,6-dimethyl-pyridin-3-yloxy]-pyridin-2-yl}-(3,4,5-trimethoxy-phenyl)-amine] | 0.00951 µM | 0.056 µM | – | – |

| SMILES | IC50 (human ALK5 [1]; [3]) | IC50 (human ALK5 [2]; [4]) | IC50 (human ALK5 [1]; EAA: activity (μM) using Enzyme Assay 1) | IC50 (human ALK5 [2]) |
| --- | --- | --- | --- | --- |
| Cc1cc(Oc2ccnc(Nc3ccccc3Cl)c2)c(-c2ccccn2)nc1C [Example 194B, N-(2-Chlorophenyl)-4-(5,6-dimethyl-2-pyridin-2-ylpyridin-3-yl)-oxypyridin-2-amine] | 2.8 µM | – | – | – |
| COc1cc(Nc2cc(Oc3ccc(C)nc3-c3ccnc4ccccc34)ccn2)cc(OC)c1OC [Example 170, 4-[6-Methyl-2-(quinolin-4-yl)pyridin-3-yloxy]-N-(3,4,5-trimethoxyphenyl)pyridin-2-amine] | 0.615 µM | – | – | – |
| COc1ccc(NC(C)=O)cc1Nc1cc(Oc2cc(C)c(C)nc2-c2ccccn2)ccn1 [Example 73, N-(3-{[4-(5,6-Dimethyl-2-pyridin-2-ylpyridin-3-yl)oxypyridin-2-yl]-amino}-4-methoxyphenyl)acetamide] | 0.454 µM | – | – | – |
| Cc1cc(Oc2ccnc(Nc3ccc4cc[nH]c4c3)c2)c(-c2ccccn2)nc1C [Example 40, N-[4-(5,6-Dimethyl-2-pyridin-2-yl-pyridin-3-yl)-oxypyridin-2-yl]-1H-indol-6-amine] | 1.14 µM and 1.11 µM | – | – | – |
| Cc1ccc(Oc2ccnc(Nc3ccc(C(=O)O)cc3)c2)c(C)n1 [Example 205, Lithium 4-{[4-(2,6-dimethylpyridin-3-yl)oxypyridin-2-yl]-amino}benzoate] | 0.15 µM | – | – | – |
| Cc1cc(Oc2ccnc(Nc3ccccc3)c2)c(-c2ccccn2)nc1C [Example 24, 4-(5,6-Dimethyl-2-pyridin-2-yl-pyridin-3-yl)oxy-N-phenyl-pyridin-2-amine] | 0.00417 µM | – | – | – |
| Cc1ccc(Oc2ccnc(Nc3ccc(S(=O)(=O)N(C)CCO)cc3)c2)c(C)n1 [Example 112, 4-{[4-(2,6-Dimethylpyridin-3-yl)oxypyridin-2-yl]amino}-N-(2-hydroxyethyl)-N-methylbenzenesulfonamide] | – | 0.505 µM | – | – |
| Cc1ccc(Oc2ccnc(Nc3cccc(CN4CCNCC4)c3)c2)c(C)n1 [Example 176, 4-(2,6-Dimethylpyridin-3-yl)oxy-N-[3-(Piperazin-1-ylmethyl)-phenyl]pyridin-2-amine] | – | 0.00829 µM | – | – |
| Cc1ccc(Oc2ccnc(Nc3ccc(C(=O)NCCN4CC5CCC(C4)O5)cc3)c2)c(C)n1 [Example 218, 4-{[4-(2,6-Dimethylpyridin-3-yl)oxypyridin-2-yl]amino}-N-[2-(8-oxa-3-azabicyclo[3.2.1]octan-3-yl)ethyl]benzamide] | – | 0.0495 µM | – | – |
| COCCNS(=O)(=O)c1ccc(Nc2cc(Oc3ccc(C)nc3C)ccn2)cc1 [Example 110, 4-{[4-(2,6-Dimethylpyridin-3-yl)oxypyridin-2-yl]amino}-N-(2-methoxyethyl)benzenesulfonamide] | – | 0.203 µM | – | – |
| COc1ccc(-c2nc(C)ccc2Oc2ccnc(Nc3cc(OC)c(OC)c(OC)c3)c2)cn1 [Example 169, 4-(6′-Methoxy-6-methyl-2,3′-bipyridin-3-yloxy)-N-(3,4,5-trimethoxyphenyl)pyridin-2-amine] | – | 0.0751 µM | – | – |
| Cc1ccc(Oc2ccnc(Nc3ccc(CC#N)cc3)c2)c(C)n1 [Example 91, 2-(4-{[4-(2,6-Dimethylpyridin-3-yl)oxypyridin-2-yl]amino}phenyl)-acetonitrile] | – | 0.0286 µM | – | – |
| Cc1ccc(Oc2ccnc(Nc3ccc(S(=O)(=O)Nc4ccccn4)cc3)c2)c(C)n1 [Example 106, 4-[4-(2,6-Dimethylpyridin-3-yloxy)pyridin-2-ylamino]-N-(pyridin-2-yl)benzenesulfonamide] | – | 0.527 µM | – | – |
| Cc1ccc(Oc2ccnc(Nc3ccc(CO)cc3)c2)c(-c2ccccc2)n1 [Example 152, (4-{[4-(6-Methyl-2-phenylpyridin-3-yl)oxypyridin-2-yl]amino}-phenyl)methanol] | – | 0.00705 µM | – | – |
| Cc1ccc(Oc2ccnc(Nc3cccc(S(=O)(=O)N4CCOCC4)c3)c2)c(C)n1 [Example 119, 4-(2,6-Dimethylpyridin-3-yl)oxy-N-(3-morpholin-4-ylsulfonyl-phenyl)pyridin-2-amine] | – | 0.0319 µM | – | – |
